Test results reported in ChEMBL document CHEMBL5210121, “Affinity On-target Cellular Literature for EUbOPEN Chemogenomics Library wave 3” (2023).
Values belong to the compound of their own block, whether it stands above or below them.

How the values were obtained:
[1] = target: Dual specificity protein kinase CLK1 (Homo sapiens, UniProt P49759); assay: Affinity On-target Cellular interaction (NanoBRET assay (HEK293T cells)) EUB0000724a CLK1; set-up: mode of action Inhibitor, recommended concentration 1 uM
[2] = target: Histone-lysine N-methyltransferase, H3 lysine-79 specific (Homo sapiens, UniProt Q8TEK3); assay: Affinity On-target Cellular interaction (Western Blot (reduction of H3K79 dimethylation in A431 cells by DOT1L)) EUB0000216b DOT1L; type: cell-based; set-up: mode of action Inhibitor, recommended concentration 1 uM
[3] = target: Leucine-rich repeat serine/threonine-protein kinase 2 (Homo sapiens, UniProt Q5S007); assay: Affinity On-target Cellular interaction (Cellular assay (LRRK2 phosphorylation)) EUB0000629a LRRK2; set-up: mode of action Inhibitor, recommended concentration 100 nM
[4] = target: Bromodomain adjacent to zinc finger domain protein 2B (Homo sapiens, UniProt Q9UIF8); assay: Affinity On-target Cellular interaction (Chemoproteomic competition binding assay (endogenous full-length BAZ2B captured on the GSK8573 affinity matrix from HuT-78 cell lysate) ) EUB0000267b BAZ2B; set-up: mode of action Negative control for GSK2801, recommended concentration 1 uM
[5] = target: Bromodomain adjacent to zinc finger domain protein 2A (Homo sapiens, UniProt Q9UIF9); assay: Affinity On-target Cellular interaction (Chemoproteomic competition binding assay (endogenous full-length BAZ2A from HuT78 extracts)) EUB0000267b BAZ2A; set-up: mode of action Negative control for GSK2801, recommended concentration 1 uM
[6] = target: Transient receptor potential cation channel subfamily A member 1 (Homo sapiens, UniProt O75762); assay: Affinity On-target Cellular interaction (Electrophysiological assay (inhibition of AITC (allylthiocyanate, 100 µmol/L)-evoked currents in HEK293F cells transiently overexpressing hTRPA1)) EUB0000308b TRPA1; type: cell-based; set-up: mode of action Antagonist, recommended concentration 1 uM
CREB-binding protein = CREB-binding protein (Homo sapiens, UniProt Q92793); assay: Affinity On-target Cellular interaction (NanoBRET assay (HEK293T cells)) EUB0000195c CREBBP; set-up: mode of action Inhibitor, recommended concentration 1 uM
[7] = target: Chromatin remodeling regulator CECR2 (Homo sapiens, UniProt Q9BXF3); assay: Affinity On-target Cellular interaction (NanoBRET assay (dose-dependent displacement from histone H3.3 in HEK293T cells)) EUB0000201c CECR2; type: cell-based; set-up: mode of action Inhibitor, recommended concentration 1 uM
[8] = target: BDNF/NT-3 growth factors receptor (Homo sapiens, UniProt Q16620); assay: Affinity On-target Cellular interaction (NanoBRET assay (HEK293T cells)) EUB0000156b NTRK2; set-up: mode of action Negative control for DDR-TRK-1 (D2202-1), recommended concentration 1 uM
[9] = target: Epithelial discoidin domain-containing receptor 1 (Homo sapiens, UniProt Q08345); assay: Affinity On-target Cellular interaction (NanoBRET assay (HEK293T cells)) EUB0000156b DDR1; set-up: mode of action Negative control for DDR-TRK-1 (D2202-1), recommended concentration 1 uM
[10] = target: Discoidin domain-containing receptor 2 (Homo sapiens, UniProt Q16832); assay: Affinity On-target Cellular interaction (NanoBRET assay (HEK293T cells)) EUB0000156b DDR2; set-up: mode of action Negative control for DDR-TRK-1 (D2202-1), recommended concentration 1 uM
[11] = target: High affinity nerve growth factor receptor (Homo sapiens, UniProt P04629); assay: Affinity On-target Cellular interaction (NanoBRET assay (HEK293T cells)) EUB0000156b NTRK1; set-up: mode of action Negative control for DDR-TRK-1 (D2202-1), recommended concentration 1 uM
[12] = target: Histone acetyltransferase KAT2A (Homo sapiens, UniProt Q92830); assay: Affinity On-target Cellular interaction (Competing pull-down assay (full-length GCN5 from cell lysates using immobilized L-Moses)) EUB0000218c KAT2A; set-up: mode of action Inhibitor, recommended concentration 1 uM
[13] = target: Histone acetyltransferase KAT2B (Homo sapiens, UniProt Q92831); assay: Affinity On-target Cellular interaction (Competing pull-down assay (full-length PCAF from cell lysates using immobilized L-Moses)) EUB0000218c KAT2B; set-up: mode of action Inhibitor, recommended concentration 1 uM
[14] = Affinity On-target Cellular interaction (Binding assay in HEK293 cells) EUB0000337aCl P2RY14
[15] = target: RAC-alpha serine/threonine-protein kinase (Homo sapiens, UniProt P31749); assay: Affinity On-target Cellular interaction (NanoBRET assay (HEK293T cells)) EUB0000721a AKT1
[16] = target: RAC-beta serine/threonine-protein kinase (Homo sapiens, UniProt P31751); assay: Affinity On-target Cellular interaction (NanoBRET assay (HEK293T cells)) EUB0000721a AKT2
[17] = target: RAC-gamma serine/threonine-protein kinase (Homo sapiens, UniProt Q9Y243); assay: Affinity On-target Cellular interaction (NanoBRET assay (HEK293T cells)) EUB0000721a AKT3
[18] = target: T1, Nucleosome-remodeling factor subunit BPTF (Homo sapiens, UniProt Q12830); assay: Affinity On-target Cellular interaction (NanoBRET assay (HEK293T cells)) EUB0000254b BPTF; set-up: mode of action Negative control for NVS-BPTF-1, recommended concentration 1 uM
[19] = target: T1, Nucleosome-remodeling factor subunit BPTF
[20] = target: Histone-lysine N-methyltransferase SETD7 (Homo sapiens, UniProt Q8WTS6); assay: Affinity On-target Cellular interaction (Immunoblot (increase in nuclear YAP levels by treatment of MEFs (from Setd7+/+ mice) with 10 µM PFI-2)) EUB0000196bCl SETD7; set-up: mode of action Inhibitor, recommended concentration 1 uM
[21] = target: Tyrosine-protein kinase JAK3 (Homo sapiens, UniProt P52333); assay: Affinity On-target Cellular interaction (NanoBRET assay (HEK293T cells)) EUB0000007b JAK3; set-up: mode of action Negative control for FM-381, recommended concentration 100 nM
[22] = target: P2Y purinoceptor 14 (Homo sapiens) (UniProt Q15391); details: Affinity On-target Cellular Source Knowledge https://pubs.acs.org/doi/10.1021/jm200400m,https://pubs.acs.org/doi/10.1021/ml300280g, https://www.sgc-ffm.uni-frankfurt.de/#!specificprobeoverview/MSD-M1PAM

RAC-beta serine/threonine-protein kinase, sequence (P31751 whole entry): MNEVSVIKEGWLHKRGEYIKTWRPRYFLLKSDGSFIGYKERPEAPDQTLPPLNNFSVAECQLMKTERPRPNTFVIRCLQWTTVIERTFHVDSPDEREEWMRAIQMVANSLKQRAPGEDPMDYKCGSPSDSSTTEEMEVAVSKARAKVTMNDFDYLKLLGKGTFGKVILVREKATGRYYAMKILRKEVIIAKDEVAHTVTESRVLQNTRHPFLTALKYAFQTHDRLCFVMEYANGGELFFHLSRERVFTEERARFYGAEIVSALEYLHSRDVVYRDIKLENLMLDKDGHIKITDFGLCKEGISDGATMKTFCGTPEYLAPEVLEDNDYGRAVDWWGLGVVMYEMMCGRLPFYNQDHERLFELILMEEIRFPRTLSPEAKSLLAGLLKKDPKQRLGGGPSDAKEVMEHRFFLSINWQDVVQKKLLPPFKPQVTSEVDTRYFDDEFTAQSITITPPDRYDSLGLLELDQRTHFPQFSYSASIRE
RAC-alpha serine/threonine-protein kinase, sequence (P31749 whole entry): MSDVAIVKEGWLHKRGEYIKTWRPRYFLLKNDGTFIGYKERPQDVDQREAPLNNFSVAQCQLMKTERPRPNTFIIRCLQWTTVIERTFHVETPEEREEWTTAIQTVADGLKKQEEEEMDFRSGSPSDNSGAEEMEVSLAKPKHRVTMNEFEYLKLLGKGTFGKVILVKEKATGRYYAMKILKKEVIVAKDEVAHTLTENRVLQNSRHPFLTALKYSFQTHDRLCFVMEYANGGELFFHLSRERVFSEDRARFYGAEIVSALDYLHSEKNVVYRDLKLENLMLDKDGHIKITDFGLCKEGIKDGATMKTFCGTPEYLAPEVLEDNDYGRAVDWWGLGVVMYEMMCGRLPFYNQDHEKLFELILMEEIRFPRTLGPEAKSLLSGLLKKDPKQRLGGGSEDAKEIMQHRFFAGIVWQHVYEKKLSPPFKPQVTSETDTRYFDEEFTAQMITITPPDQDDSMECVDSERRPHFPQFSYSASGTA
Histone-lysine N-methyltransferase SETD7, sequence (Q8WTS6 whole entry): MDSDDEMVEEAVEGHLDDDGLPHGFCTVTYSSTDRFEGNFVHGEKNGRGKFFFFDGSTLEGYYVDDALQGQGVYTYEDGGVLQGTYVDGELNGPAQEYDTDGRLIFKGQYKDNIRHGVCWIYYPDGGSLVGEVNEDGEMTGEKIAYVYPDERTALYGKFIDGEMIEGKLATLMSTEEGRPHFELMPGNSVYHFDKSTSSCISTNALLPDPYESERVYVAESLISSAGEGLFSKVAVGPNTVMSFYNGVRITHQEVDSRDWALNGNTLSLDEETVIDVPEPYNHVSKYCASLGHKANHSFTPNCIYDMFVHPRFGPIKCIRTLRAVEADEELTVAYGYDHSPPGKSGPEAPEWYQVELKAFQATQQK
Histone acetyltransferase KAT2B, sequence (Q92831 whole entry): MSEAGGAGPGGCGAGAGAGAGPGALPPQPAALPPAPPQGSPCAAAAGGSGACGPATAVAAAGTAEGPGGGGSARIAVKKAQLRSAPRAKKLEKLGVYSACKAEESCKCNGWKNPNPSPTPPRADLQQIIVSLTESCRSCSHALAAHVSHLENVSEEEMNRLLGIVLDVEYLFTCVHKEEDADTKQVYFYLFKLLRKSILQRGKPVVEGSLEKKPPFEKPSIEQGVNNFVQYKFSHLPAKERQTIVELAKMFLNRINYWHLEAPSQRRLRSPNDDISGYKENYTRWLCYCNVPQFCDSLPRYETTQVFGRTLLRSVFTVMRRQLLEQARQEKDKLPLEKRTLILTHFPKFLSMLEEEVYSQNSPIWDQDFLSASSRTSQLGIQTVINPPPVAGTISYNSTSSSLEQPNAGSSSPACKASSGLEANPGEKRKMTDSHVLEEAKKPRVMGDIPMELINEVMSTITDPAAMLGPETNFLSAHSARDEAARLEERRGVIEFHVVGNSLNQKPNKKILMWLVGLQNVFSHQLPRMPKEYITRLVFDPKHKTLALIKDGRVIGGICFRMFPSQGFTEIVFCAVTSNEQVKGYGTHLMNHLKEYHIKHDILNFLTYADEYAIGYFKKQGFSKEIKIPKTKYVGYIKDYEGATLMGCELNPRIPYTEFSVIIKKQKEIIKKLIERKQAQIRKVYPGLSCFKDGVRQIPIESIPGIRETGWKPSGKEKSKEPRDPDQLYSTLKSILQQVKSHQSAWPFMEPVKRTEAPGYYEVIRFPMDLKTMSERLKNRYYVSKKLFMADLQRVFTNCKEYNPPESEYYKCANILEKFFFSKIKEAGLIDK
RAC-gamma serine/threonine-protein kinase, sequence (Q9Y243 whole entry): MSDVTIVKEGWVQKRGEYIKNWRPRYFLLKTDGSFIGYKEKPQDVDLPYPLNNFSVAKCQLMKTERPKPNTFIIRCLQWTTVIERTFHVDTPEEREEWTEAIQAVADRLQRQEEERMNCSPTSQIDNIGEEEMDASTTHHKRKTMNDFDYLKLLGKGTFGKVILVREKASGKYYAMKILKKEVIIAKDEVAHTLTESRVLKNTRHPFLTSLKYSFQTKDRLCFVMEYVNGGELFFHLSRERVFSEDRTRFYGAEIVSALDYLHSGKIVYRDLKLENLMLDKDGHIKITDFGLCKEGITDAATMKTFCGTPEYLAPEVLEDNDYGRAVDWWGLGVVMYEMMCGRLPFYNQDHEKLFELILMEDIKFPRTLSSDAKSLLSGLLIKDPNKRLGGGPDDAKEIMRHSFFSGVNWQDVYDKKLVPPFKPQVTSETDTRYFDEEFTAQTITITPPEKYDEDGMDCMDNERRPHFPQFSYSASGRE
BDNF/NT-3 growth factors receptor, sequence (Q16620 whole entry, the tested form may be a part): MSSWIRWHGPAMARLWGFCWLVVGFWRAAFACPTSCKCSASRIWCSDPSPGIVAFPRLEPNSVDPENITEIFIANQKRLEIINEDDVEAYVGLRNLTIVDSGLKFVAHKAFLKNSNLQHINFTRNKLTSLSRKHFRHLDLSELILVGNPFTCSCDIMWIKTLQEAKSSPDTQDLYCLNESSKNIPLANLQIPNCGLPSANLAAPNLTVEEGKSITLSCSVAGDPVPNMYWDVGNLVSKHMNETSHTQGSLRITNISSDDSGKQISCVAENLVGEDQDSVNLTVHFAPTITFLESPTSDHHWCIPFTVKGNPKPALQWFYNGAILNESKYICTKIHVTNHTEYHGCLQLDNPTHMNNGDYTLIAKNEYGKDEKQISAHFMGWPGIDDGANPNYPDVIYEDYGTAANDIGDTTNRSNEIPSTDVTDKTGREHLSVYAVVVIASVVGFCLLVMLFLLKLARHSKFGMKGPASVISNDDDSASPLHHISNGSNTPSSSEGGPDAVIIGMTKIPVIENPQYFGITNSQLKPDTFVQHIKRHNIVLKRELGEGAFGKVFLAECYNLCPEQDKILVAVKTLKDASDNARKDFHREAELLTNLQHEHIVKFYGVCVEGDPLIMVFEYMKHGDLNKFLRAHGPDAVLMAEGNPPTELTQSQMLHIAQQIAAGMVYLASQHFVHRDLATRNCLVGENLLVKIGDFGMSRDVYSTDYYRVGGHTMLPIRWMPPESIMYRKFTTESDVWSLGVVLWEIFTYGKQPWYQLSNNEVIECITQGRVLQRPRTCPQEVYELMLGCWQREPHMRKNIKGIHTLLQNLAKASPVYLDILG
Chromatin remodeling regulator CECR2, sequence (Q9BXF3 whole entry): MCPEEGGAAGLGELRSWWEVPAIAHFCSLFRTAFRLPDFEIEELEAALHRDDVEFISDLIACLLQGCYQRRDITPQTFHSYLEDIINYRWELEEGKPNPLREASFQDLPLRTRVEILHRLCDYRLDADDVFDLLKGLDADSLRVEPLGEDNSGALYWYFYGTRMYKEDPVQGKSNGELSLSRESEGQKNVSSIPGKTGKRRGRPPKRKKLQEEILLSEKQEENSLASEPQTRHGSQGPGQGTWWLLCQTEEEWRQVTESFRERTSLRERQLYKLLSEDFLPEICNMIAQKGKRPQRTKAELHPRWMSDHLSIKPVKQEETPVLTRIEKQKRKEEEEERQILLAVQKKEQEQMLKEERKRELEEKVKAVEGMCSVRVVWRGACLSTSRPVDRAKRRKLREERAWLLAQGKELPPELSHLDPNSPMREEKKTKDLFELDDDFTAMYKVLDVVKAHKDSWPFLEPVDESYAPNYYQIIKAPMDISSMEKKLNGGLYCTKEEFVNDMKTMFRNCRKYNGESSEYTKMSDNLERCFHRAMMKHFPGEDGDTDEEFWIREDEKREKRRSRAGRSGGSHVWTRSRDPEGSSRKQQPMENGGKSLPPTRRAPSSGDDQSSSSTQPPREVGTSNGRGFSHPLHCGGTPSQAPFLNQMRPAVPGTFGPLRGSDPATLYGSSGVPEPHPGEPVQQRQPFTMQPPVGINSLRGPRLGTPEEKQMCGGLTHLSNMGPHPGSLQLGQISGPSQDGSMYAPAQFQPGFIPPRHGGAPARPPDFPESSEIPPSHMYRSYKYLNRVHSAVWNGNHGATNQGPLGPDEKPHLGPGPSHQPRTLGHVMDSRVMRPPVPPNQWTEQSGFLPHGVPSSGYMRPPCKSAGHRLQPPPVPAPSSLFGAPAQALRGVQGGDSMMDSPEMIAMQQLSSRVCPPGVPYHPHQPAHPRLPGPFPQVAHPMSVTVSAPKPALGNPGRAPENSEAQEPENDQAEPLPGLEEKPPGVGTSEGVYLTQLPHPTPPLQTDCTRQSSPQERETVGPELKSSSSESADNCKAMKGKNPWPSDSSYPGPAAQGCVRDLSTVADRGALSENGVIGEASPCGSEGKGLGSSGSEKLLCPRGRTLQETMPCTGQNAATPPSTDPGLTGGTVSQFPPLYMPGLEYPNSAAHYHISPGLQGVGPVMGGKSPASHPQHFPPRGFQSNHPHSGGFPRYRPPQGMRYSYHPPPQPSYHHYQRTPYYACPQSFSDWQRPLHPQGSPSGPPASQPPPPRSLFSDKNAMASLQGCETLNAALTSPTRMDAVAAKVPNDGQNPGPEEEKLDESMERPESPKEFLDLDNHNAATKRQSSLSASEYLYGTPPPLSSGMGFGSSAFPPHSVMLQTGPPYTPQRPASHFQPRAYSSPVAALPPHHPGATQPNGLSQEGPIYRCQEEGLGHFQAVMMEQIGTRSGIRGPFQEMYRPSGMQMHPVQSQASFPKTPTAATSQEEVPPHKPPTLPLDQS

IC50 [1]: 0.165 µM
Structure (SMILES): COc1cc(Nc2nccc(-c3cnn4nc(OC)ccc34)n2)cc(C(F)(F)F)c1

IC50 [2]: 0.0026 µM
Structure (SMILES): CC(C)N(CCCNC(=O)Nc1ccc(C(C)(C)C)cc1)C[C@H]1O[C@@H](n2cc(Br)c3c(N)ncnc32)[C@H](O)[C@@H]1O

IC50 [3]: 0.019 µM
Structure (SMILES): CNc1nc(Nc2cnn([C@H]3CCN(C4COC4)C[C@@H]3F)c2Cl)ncc1C(F)(F)F

Kd [4]: > 10 µM
Kd [5]: > 10 µM
Structure (SMILES): CCCOc1ccn2c(C(C)=O)cc(-c3cccc(OC)c3)c2c1

IC50 [6]: 0.051 µM
Structure (SMILES): Clc1cccc(-c2nnnn2Cc2cccnc2)c1Cl

IC50 (CREB-binding protein): 0.6 µM
Structure (SMILES): CCC(=O)N1CCOc2c(cc(-c3ccc(OC)c(OC)c3)cc2OC[C@H]2CCCN(C)C2)C1

IC50 [7]: 0.255 µM
Structure (SMILES): CCCS(=O)(=O)c1nc(NC2CC2)cc(-c2ccc3c(ccn3C3CC(C)(C)NC(C)(C)C3)c2)n1

IC50 [8]: 6.8 µM
IC50 [9]: 26.6 µM
IC50 [10]: 8.72 µM
IC50 [11]: 19.3 µM
Structure (SMILES): CN1CCN(Cc2cc(NC(=O)c3ccc4c(c3)CN(c3ccccc3)CC4)cc(C(F)(F)F)c2)CC1

IC50 [12]: 0.22 µM
IC50 [13]: 0.66 µM
Structure (SMILES): Cc1nnc2c3ccccc3c(N[C@@H](C)[C@H](c3ccccc3)N(C)C)nn12

Ki [14]: 8.61 µM
Structure (SMILES): Cc1c(C(=O)O)cc(-c2ccc(C3CCNCC3)cc2)c2ccc(-c3ccc(C(F)(F)F)cc3)cc12

IC50 [15]: 1.9 µM
IC50 [16]: 8.3 µM
IC50 [17]: 18 µM
Structure (SMILES): C=CC(=O)Nc1ccc2[nH]c(=O)n(C3CCN(C(=O)c4ccc(-c5nc6cc[nH]c(=O)c6cc5-c5ccccc5)cc4)CC3)c2c1

IC50 [18]: > 10 µM
Structure (SMILES): Cc1c(Nc2ccc(S(=O)(=O)N3CCN(C)CC3)cc2F)nc2ccc(Nc3cnn(C4CC4)c3)cn2c1=O

IC50 [19]: 0.016 µM
Structure (SMILES): Cc1c(Nc2ccc(S(=O)(=O)N3CCN(C)CC3)cc2F)nc2ccc(-c3cnn(C4CC4)c3)cn2c1=O

EC50 [20]: < 10 µM
Structure (SMILES): O=C([C@@H](Cc1cccc(C(F)(F)F)c1)NS(=O)(=O)c1cc(F)c2c(c1)CCNC2)N1CCCC1

IC50 [21]: > 10 µM
Structure (SMILES): CN(C)C(=O)/C(C#N)=C/c1ccc(-c2nc3cnc4c(ccn4C)c3n2C2CCCCC2)o1

Potentiation inflection point [22]: > 10 µM
Structure (SMILES): O=C(O)c1cc(-c2ccc(C3CCNCC3)cc2)c2ccc(-c3ccc(C(F)(F)F)cc3)cc2c1
